Measured values from US20230266302A1, “SYNTHESIS AND USE OF N-BENZYL SULFONAMIDES” (THE UNIVERSITY OF TULSA, priority 2020, published 2023).

Legend:
Test in all cases: ATP level assay (CellTiter-Glo), percent of control
Format in all cases: cell-based
[1] = test system: PC3 (prostate cancer); conditions: two hour incubation; for activity at 100 µM: 2 h, compound alone, control DMSO, read-out: POC (percent of control) PC3
[2] = test system: MDA-MB (breast cancer); conditions: two hour incubation; for activity at 100 µM: 2 h, compound alone, control DMSO, read-out: POC (percent of control) MDA-MB
[3] = test system: MCF10A (non-cancerous breast); conditions: two hour incubation; for activity at 100 µM: Homo sapiens, MCF-10A, 2 h, compound alone, control DMSO, read-out: POC (percent of control) MCF10A
[4] = test system: HDF (normal cells); conditions: two hour incubation; for activity at 100 µM: 2 h, compound alone, control DMSO, read-out: POC (percent of control) HDF
[5] = test system: MCF7 (breast cancer); conditions: two hour incubation; for activity at 100 µM: Homo sapiens, MCF7, 2 h, compound alone, control DMSO, read-out: POC (percent of control) MCF7
[6] = test system: BxPC3 (pancreatic cancer); conditions: two hour incubation; for activity at 100 µM: Homo sapiens, BXPC-3, 2 h, compound alone, control DMSO, read-out: POC (percent of control) BxPC3
[7] = test system: HeLa (cervical cancer); conditions: two hour incubation; for activity at 100 µM: Homo sapiens, HeLa, 2 h, compound alone, control DMSO, read-out: POC (percent of control) HeLa
[8] = test system: SkBr3 (breast cancer); conditions: two hour incubation; for activity at 100 µM: Homo sapiens, SK-BR-3, 2 h, compound alone, control DMSO, read-out: POC (percent of control) SkBr3
[9] = test system: NCI-H196 (lung cancer); conditions: two hour incubation; for activity at 100 µM: NCI-H196, 2 h, compound alone, control DMSO, read-out: POC (percent of control) NCI-H196
[10] = test system: T47D (breast cancer); conditions: two hour incubation; for activity at 100 µM: Homo sapiens, T47D, 2 h, compound alone, control DMSO, read-out: POC (percent of control) T47D
[11] = test system: H293 (kidney cancer); conditions: two hour incubation; for activity at 100 µM: 2 h, compound alone, control DMSO, read-out: POC (percent of control) H293
[12] = compound 100 uM + 2DG (about 10-20 mM)
[13] = compound 100 uM + rotenone (approximately 1.25 μM)

SMILES | activity at 100 µM [1] [%] | POC (percent of control) PC3 [1, 12] | POC (percent of control) PC3 [1, 13] | activity at 100 µM [2] [%] | POC (percent of control) MDA-MB [2, 12] | POC (percent of control) MDA-MB [2, 13] | activity at 100 µM [3] [%] | POC (percent of control) MCF10A [3, 12] | POC (percent of control) MCF10A [3, 13] | activity at 100 µM [4] [%] | POC (percent of control) HDF [4, 12] | POC (percent of control) HDF [4, 13] | activity at 100 µM [5] [%] | POC (percent of control) MCF7 [5, 12] | POC (percent of control) MCF7 [5, 13] | activity at 100 µM [6] [%] | POC (percent of control) BxPC3 [6, 12] | POC (percent of control) BxPC3 [6, 13] | activity at 100 µM [7] [%] | POC (percent of control) HeLa [7, 12] | other results
Cc1ccc(S(=O)(=O)NCc2ccc3c(cnn3C)c2)cc1 [Compound 9, 4-methyl-N-[(1-methyl-1H-indazol-5-yl)methyl]benzenesulfonamide] | 90.4 | 89.3% of control | 101.7% of control | 95.6 | 91.7% of control | 114% of control | 89.6 | 88.3% of control | 123.7% of control | 86.4 | 88.5% of control | 107.6% of control | 117 | 75.8% of control | 95.1% of control | 114 | 57.6% of control | 118.5% of control | 97.3 | 80.5% of control | POC (percent of control) HeLa [7, 13]: 89.8% of control; activity at 100 µM [8]: 74.1%; POC (percent of control) SkBr3 [8, 12]: 89.9% of control; POC (percent of control) SkBr3 [8, 13]: 115.5% of control; activity at 100 µM [9]: 93.1%; POC (percent of control) NCI-H196 [9, 12]: 86.1% of control; POC (percent of control) NCI-H196 [9, 13]: 117.7% of control; activity at 100 µM [10]: 50.3%; POC (percent of control) T47D [10, 12]: 58.9% of control; POC (percent of control) T47D [10, 13]: 103.5% of control; activity at 100 µM [11]: 83.3%; POC (percent of control) H293 [11, 12]: 76.6% of control; POC (percent of control) H293 [11, 13]: 88.5% of control
O=S(=O)(NCc1cscn1)c1ccc(Cl)cc1 [Compound 18, 4-chloro-N-(1,3-thiazol-4-ylmethyl)benzenesulfonamide] | 74 | 94% of control | 97.2% of control | 102 | 86.1% of control | 100% of control | 119 | 92.2% of control | 86.9% of control | 96.1 | 93% of control | 95.7% of control | 110 | 137.3% of control | 82% of control | 100 | 85.4% of control | 94.3% of control | 99.5 | 100% of control | POC (percent of control) HeLa [7, 13]: 97.3% of control; activity at 100 µM [8]: 112%; POC (percent of control) SkBr3 [8, 12]: 107.2% of control; POC (percent of control) SkBr3 [8, 13]: 96.6% of control; activity at 100 µM [9]: 97.4%; POC (percent of control) NCI-H196 [9, 12]: 108.3% of control; POC (percent of control) NCI-H196 [9, 13]: 87.3% of control; activity at 100 µM [10]: 95.7%; POC (percent of control) T47D [10, 12]: 82.8% of control; POC (percent of control) T47D [10, 13]: 100.6% of control; activity at 100 µM [11]: 67.3%; POC (percent of control) H293 [11, 12]: 96.3% of control; POC (percent of control) H293 [11, 13]: 67.4% of control
